Test results as given in patent publication US20180194762A1 (Pharmacyclics LLC, priority 2017, published 2018).
Read-outs that look alike come from different tables or passages of the source.

How the values were obtained:
Assay type in all cases: biochemical
TEC = molecular target: T1, TEC (Homo sapiens, UniProt P42680); assay: Inhibition of a panel of kinases (in vitro HotSpot kinase assay, 33P-ATP, 1 μM ATP); conditions: for IC50: HotSpot kinase assay, 1 μM ATP; for TEC/Btk: ratio of TEC IC50 to Btk IC50 (selectivity)
T1 sequence (P42680 1-631): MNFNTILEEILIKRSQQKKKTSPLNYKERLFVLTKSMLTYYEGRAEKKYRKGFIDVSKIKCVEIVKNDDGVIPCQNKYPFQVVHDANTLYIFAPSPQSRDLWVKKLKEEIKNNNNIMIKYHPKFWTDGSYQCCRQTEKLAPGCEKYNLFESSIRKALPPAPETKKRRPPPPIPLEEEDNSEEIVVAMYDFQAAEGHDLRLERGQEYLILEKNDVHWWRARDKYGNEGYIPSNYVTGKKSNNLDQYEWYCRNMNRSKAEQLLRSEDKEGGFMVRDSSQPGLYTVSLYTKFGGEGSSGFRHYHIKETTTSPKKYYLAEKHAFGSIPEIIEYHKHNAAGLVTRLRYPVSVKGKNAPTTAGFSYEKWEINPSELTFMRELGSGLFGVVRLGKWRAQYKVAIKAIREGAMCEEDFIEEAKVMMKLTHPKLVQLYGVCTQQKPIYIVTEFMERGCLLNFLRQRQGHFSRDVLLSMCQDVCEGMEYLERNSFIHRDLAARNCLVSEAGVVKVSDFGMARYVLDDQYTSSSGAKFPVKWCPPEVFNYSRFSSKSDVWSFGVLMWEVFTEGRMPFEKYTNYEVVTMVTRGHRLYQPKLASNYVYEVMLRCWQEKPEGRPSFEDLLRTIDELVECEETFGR
Method in brief: (§1)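 Purified kinase enzymes were incubated with an appropriate substrate and 33P-labelled ATP at 1 μM ATP. Inhibition was measured radiometrically from incorporation of the 33P label.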

panel of kinases = molecular target: T2, panel of kinases (Homo sapiens, UniProt P51813); assay: Inhibition of a panel of kinases (in vitro HotSpot kinase assay, 33P-ATP, 1 μM ATP), other kinases; conditions: BMX wild-type, read-out: BMX-WT IC50
T2 sequence (P51813 1-675): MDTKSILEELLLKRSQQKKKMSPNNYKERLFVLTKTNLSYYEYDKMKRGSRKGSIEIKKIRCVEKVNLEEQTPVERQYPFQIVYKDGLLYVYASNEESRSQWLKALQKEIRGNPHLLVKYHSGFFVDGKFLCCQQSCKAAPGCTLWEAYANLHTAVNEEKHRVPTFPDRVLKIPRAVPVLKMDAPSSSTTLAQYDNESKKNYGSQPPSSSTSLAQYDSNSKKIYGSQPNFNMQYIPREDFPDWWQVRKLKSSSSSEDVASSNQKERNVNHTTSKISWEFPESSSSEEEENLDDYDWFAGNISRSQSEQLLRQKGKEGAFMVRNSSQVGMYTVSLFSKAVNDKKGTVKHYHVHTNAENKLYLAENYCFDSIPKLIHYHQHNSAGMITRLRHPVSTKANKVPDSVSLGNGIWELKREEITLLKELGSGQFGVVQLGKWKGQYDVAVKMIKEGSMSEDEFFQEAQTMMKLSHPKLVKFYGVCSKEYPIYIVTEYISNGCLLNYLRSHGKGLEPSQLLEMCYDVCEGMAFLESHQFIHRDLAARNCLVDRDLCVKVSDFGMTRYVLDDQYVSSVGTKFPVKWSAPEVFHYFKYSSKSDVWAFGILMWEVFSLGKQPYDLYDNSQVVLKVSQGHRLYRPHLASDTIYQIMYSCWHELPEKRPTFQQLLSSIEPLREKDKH
Method in brief: as §1

Btk = molecular target: T3, Btk (Homo sapiens, UniProt Q06187); assay: Btk in vitro inhibitory activity (one of Method A TR-FRET, Method B electrophoretic mobility shift, Method C radiometric filter binding)
T3 construct: purified from insect cells as a full-length construct containing a N-terminal 6X-His tag; His6 (N); made in house; host or cells: insect cells (Method C)
T3 sequence (Q06187 whole entry): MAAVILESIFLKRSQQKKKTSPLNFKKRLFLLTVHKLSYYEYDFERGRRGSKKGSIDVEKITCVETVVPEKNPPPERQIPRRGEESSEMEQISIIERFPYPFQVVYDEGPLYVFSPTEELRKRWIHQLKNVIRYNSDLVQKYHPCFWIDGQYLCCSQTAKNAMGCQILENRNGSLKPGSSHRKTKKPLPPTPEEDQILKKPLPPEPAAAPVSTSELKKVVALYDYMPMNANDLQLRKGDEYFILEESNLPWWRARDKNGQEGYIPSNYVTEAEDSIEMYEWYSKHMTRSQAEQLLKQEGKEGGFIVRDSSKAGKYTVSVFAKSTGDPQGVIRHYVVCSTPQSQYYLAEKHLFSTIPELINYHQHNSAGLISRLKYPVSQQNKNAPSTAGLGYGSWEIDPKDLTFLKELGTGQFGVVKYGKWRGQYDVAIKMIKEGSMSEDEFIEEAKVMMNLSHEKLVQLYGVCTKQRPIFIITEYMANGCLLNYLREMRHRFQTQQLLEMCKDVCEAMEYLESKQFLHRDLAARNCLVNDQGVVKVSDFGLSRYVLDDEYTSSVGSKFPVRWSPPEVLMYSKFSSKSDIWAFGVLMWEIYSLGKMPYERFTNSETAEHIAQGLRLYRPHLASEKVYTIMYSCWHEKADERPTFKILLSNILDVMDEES
Method in brief: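 Method A: TR-FRET with 0.5 nM Btk at [ATP]=Km, EDTA-quenched, 665/615 nm ratio; Ki(app) converted to IC50. Method B: 1 nM full-length His6 human BTK, 1 μM FAM peptide, pH 7.5, mobility-shift product/sum ratio, 12-point 4-parameter fit. Method C: radiometric filter binding, 8 nM His-tagged BTK, 0.2 mg/mL poly-Glu-Tyr.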

[1] = method is one of A, B or C, not stated which, read-out: IC50 values against Btk
[2] = wild-type Btk, read-out: Btk-WT IC50

SMILES | IC50 (TEC) | TEC/Btk (TEC) | IC50 (panel of kinases) | IC50 (Btk; [1]) | IC50 (Btk; [2])
C=CC(=O)N1CC[C@@H](Nc2n[nH]c3nccc(-c4ccc(CNC(=O)c5cc6c(n5C)CC(C)(C)C6)c(F)c4)c23)C1 [Example 158, N-{[2-fluoro-4-(3-{[(3R)-1-(prop-2-enoyl)pyrrolidin-3-yl]amino}-1H-pyrazolo[3,4-b]pyridin-4-yl)phenyl]methyl}-1,5,5-trimethyl-1H,4H,5H,6H-cyclopenta[b]pyrrole-2-carboxamide] | 394 nM | 51 | 170 nM | < 10 nM | 7.71 nM
CC(C)(C)c1noc(C(=O)NCc2ccc(-c3ccnc4[nH]nc(N5CC[C@H](N)C5)c34)cc2F)n1 [Example 159, N-[(4-{3-[(3S)-3-aminopyrrolidin-1-yl]-1H-pyrazolo[3,4-b]pyridin-4-yl}-2-fluorophenyl)methyl]-3-tert-butyl-1,2,4-oxadiazole-5-carboxamide] | 591 nM | 408 | 1820 nM | < 10 nM | 1.45 nM
C=CC(=O)N1CC[C@@H](Nc2n[nH]c3nccc(-c4cccc(NC(=O)c5noc(C(C)(C)C)n5)c4CO)c23)C1 [Example 160, 5-tert-butyl-N-[2-(hydroxymethyl)-3-(3-{[(3R)-1-(prop-2-enoyl)pyrrolidin-3-yl]amino}-1H-pyrazolo[3,4-b]pyridin-4-yl)phenyl]-1,2,4-oxadiazole-3-carboxamide] | 922 nM | 25 | 444 nM |  | 37.3 nM
C=CC(=O)N1CC[C@@H](Nc2n[nH]c3nccc(-c4cccc(NC(=O)c5ccc(C(C)(C)C)cc5)c4CO)c23)C1 [Example 161, 4-tert-butyl-N-[2-(hydroxymethyl)-3-(3-{[(3R)-1-(prop-2-enoyl)pyrrolidin-3-yl]amino}-1H-pyrazolo[3,4-b]pyridin-4-yl)phenyl]benzamide] | 318 nM | 558 | 275 nM | < 10 nM | 0.57 nM
CC(C)(C)c1noc(C(=O)NCc2ccc(-c3ccnc4[nH]nc(N[C@H]5CCNC5)c34)cc2F)n1 [Example 162, 3-tert-butyl-N-{[2-fluoro-4-(3-{[(3S)-pyrrolidin-3-yl]amino}-1H-pyraozlo[3,4-b]pyridin-4-yl)phenyl]methyl}-1,2,4-oxadiazole-5-carboxamide] | 6260 nM | 1391 | 6050 nM | < 10 nM | 4.5 nM
CC(C)N1CC[C@H](Nc2n[nH]c3nccc(-c4ccc(CNC(=O)c5nc(C(C)(C)C)no5)c(F)c4)c23)C1 [Example 163, 3-tert-butyl-N-{[2-fluoro-4-(3-{[(3S)-1-(propan-2-yl)pyrrolidin-3-yl]amino}-1H-pyrazolo[3,4-b]pyridin-4-yl)phenyl]methyl}-1,2,4-oxadiazole-5-carboxamide] | 9450 nM | 1977 | > 10000 nM | < 10 nM | 4.78 nM
CC(=O)N1CC[C@H](Nc2n[nH]c3nccc(-c4ccc(CNC(=O)c5nc(C(C)(C)C)no5)c(F)c4)c23)C1 [Example 164, N-{[4-(3-{[(3S)-1-acetylpyrrolidin-3-yl]amino}-1H-pyrazolo[3,4-b]pyridin-4-yl)-2-fluorophenyl]methyl}-3-tert-butyl-1,2,4-oxadiazole-5-carboxamide] | 8070 nM | 714 | 8340 nM |  | 11.3 nM
CC(C)(C)c1nc(C(=O)Nc2cccc(-c3ccnc4[nH]nc(N[C@@H]5CCNC5)c34)c2CO)no1 [Example 165, t-tert-butyl-N-[2-(hydroxymethyl)-3-(3-{[(3R)-pyrrolidin-3-yl]amino}-1H-pyrazolo[3,4-b]pyridin-4-yl)phenyl]-1,2,4-oxadiazole-3-carboxamide] | > 10000 nM | >100 | > 10000 nM |  | > 10000 nM
CN1CC[C@H](Nc2n[nH]c3nccc(-c4ccc(CNC(=O)c5nc(C(C)(C)C)no5)c(F)c4)c23)C1 [Example 166, 3-tert-butyl-N-{[2-fluoro-4-(3-{[(3S)-1-methylpyrrolidin-3-yl]amino}-1H-pyrazolo[3,4-b]pyridin-4-yl)phenyl]methyl}-1,2,4-oxadiazole-5-carboxamide] | > 10000 nM | >100 | > 10000 nM | < 10 nM | 3.12 nM
CC(C)(C)c1noc(C(=O)NCc2ccc(-c3ccnc4[nH]nc(N[C@H]5CCCNC5)c34)cc2F)n1 [Example 167, 3-tert-butyl-N-{[2-fluoro-4-(3-{[(3S)-piperidin-3-yl]amino}-1H-pyrazolo[3,4-b]pyridin-4-yl)phenyl]methyl}-1,2,4-oxadiazole-5-carboxamide] | > 10000 nM | >100 | > 10000 nM |  | 10.7 nM
CC(=O)N1CCC[C@H](Nc2n[nH]c3nccc(-c4ccc(CNC(=O)c5nc(C(C)(C)C)no5)c(F)c4)c23)C1 [Example 168, N-{[4-(3-{[(3S)-1-acetylpiperidin-3-yl]amino}-1H-pyrazolo[3,4-b]pyridin-4-yl)-2-fluorophenyl]methyl}-3-tert-butyl-1,2,4-oxadiazole-5-carboxamide] | > 10000 nM | >100 | > 10000 nM |  | 40.3 nM
C=CC(=O)N1CCC[C@H](Nc2n[nH]c3nccc(-c4ccc(CNC(=O)c5nc(C(C)(C)C)no5)c(F)c4)c23)C1 [Example 169, 3-tert-butyl-N-{[2-fluoro-4-(3-{[(3S)-1-(prop-2-enoyl)piperidin-3-yl]amino}-1H-pyrazolo[3,4-b]pyridin-4-yl)phenyl]methyl}-1,2,4-oxadiazole-5-carboxamide] | 1750 nM | 470 | 1820 nM | < 10 nM | 3.72 nM
CCc1cc(C(=O)NCc2ccc(-c3ccnc4[nH]nc(N[C@@H]5CCCN[C@@H]5C)c34)cc2F)no1 [Example 170, 5-ethyl-N-{[2-fluoro-4-(3-{[(2R,3R)-2-methylpiperidin-3-yl]amino}-1H-pyrazolo[3,4-b]pyridin-4-yl)phenyl]methyl}-1,2-oxazole-3-carboxamide] | > 10000 nM |  | > 10000 nM |  | > 10000 nM
CCc1cc(C(=O)NCc2ccc(-c3ccnc4[nH]nc(N[C@@H]5CCCN(C(=O)N(C)C)[C@@H]5C)c34)cc2F)no1 [Example 171, (2R,3R)-3-{[4-(4-{[(5-ethyl-1,2-oxazol-3-yl)formamido]methyl}-3-fluorophenyl)-1H-pyrazolo[3,4-b]pyridin-3-yl]amino}-N,N,2-trimethylpiperidine-1-carboxamide] | > 10000 nM | >100 | 7790 nM |  | 559 nM
CC(C)c1cc(C(=O)NCc2ccc(-c3ccnc4[nH]nc(N[C@@H]5CCCN[C@@H]5C)c34)cc2F)no1 [Example 172, N-{[2-fluoro-4-(3-{[(2R,3R)-2-methylpiperidin-3-yl]amino}-1H-pyrazolo[3,4-b]pyridin-4-yl)phenyl]methyl}-5-(propan-2-yl)-1,2-oxazole-3-carboxamide] | > 10000 nM | >100 | > 10000 nM |  | 436 nM
